The text below walks through data of patent EP0911319A1, “Malonic acid based matrix metalloproteinase inhibitors” (Roche Diagnostics GmbH, priority 1997, dated 1999).

The target of this assay is catalytic domain (Met80-Gly242) of human neutrophil collagenase (Homo sapiens, UniProt P22894). It is filed as biochemical. The note with it: towards HNC, 8 nM enzyme, 10 µM DNP-Pro-Leu-Gly-Leu-Trp-Ala-D-Arg-NH2, 50 mM Tris/HCl pH 7.6, 25°C.

The structures appear in SMILES notation. Like-named read-outs stand apart in the source and are kept apart here.

Sequence of catalytic domain (Met80-Gly242) of human neutrophil collagenase (P22894 100-262): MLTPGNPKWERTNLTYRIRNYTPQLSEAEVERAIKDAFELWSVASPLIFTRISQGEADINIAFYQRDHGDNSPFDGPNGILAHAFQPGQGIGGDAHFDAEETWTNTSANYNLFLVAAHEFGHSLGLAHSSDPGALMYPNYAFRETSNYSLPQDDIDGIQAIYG
Description: Determination of the inhibitory effect (enzyme assay)
In order to determine the inhibition of MMPs, for example HNC, the catalytic domain (isolation and purification see example 1) is incubated with inhibitors having various concentrations. […] The synthetic MMP substrate is a heptapeptide which is coupled, at the C-terminus, with DNP (Dinitrophenol). Said DNP residue quenches by steric hindrance the fluorescence of the adjacent tryptophane of the heptapeptide. After cleavage of a tripeptide which includes the DNP group, the tryptophane fluorescence increases. […] The reaction was started directly by giving the substrate into the solution. The cleavage of the fluorogenic substrate was followed by fluorescence spectroscopy with an excitation and emission wavelength of 280 and 350 nm, respectively. The IC50 value was calculated as the inhibitor concentration, which is necessary to decrease the velocity of the reaction to the half in comparison to the reaction without inhibitor.

On to `CCCCCCCCNC(=O)C(CC(C)C)C(=O)NO` (racemic) [Example 2, (±)-HONH-Mal(iBu)-NH-(CH2)7-CH3], for which the IC50 (read-out: IC50) came to 300 nM. Regarding `O=C(NO)C(Cc1ccccc1)C(=O)NCCCc1ccccc1` (racemic) [Example 4, (±)-HONH-Mal(Bn)-NH-(CH2)3-C6H5], the IC50 (read-out: IC50) is 640 nM. The same measure, in the same setting: the value for `O=C(NO)C(CCc1ccccc1)C(=O)NCCCc1ccccc1` (racemic) [Example 3, (±)-HONH-Mal(CH2CH2-C6H5)-NH-(CH2)3-C6H5] was 560 nM. Compound `CC(C)CC(C(=O)NO)C(=O)NCCCc1ccccc1` (racemic) [Example 1, (±)-HONH-Mal(iBu)-NH-(CH2)3-C6H5] gave an IC50 of 620 nM.
